Source: patent US9994852B2, “Oligonucleotide compositions and uses thereof” (MIRAGEN THERAPEUTICS, INC., priority 2015, dated 2018)
“Also recorded” adds a separate entry of the source. l = locked nucleic acid (LNA); d = 2'-deoxy (DNA)

Tests used:
Format in all cases: cell-based, human
miR-155-5p [1] = experiment: Real time PCR of miR-155 direct target genes in CTCL cell lines treated with antimiR-155 (passive uptake); details: for target de-repression: HuT102 and MyLa cell lines; for gene expression signature of four direct targets of miR-155-5p vs untreated cells: MJ and HuT102 cells, 72 hours; for gene expression signature of four direct targets of miR-155-5p vs untreated cells / antimiR activity by four-gene signature (Bach1, Jarid2, Picalm, Ship1): 10 μM; for antimiR activity by four-gene signature (Bach1, Jarid2, Picalm, Ship1): cumulative data across 2 μM, 50 μM and three mycosis fungoides cell lines
Protocol: CTCL cell lines were cultured in complete growth medium with the addition of antimiR-155 compound 1 (SEQ ID NO: 27), compound 2 (SEQ ID NO: 22), compound 3 (SEQ ID NO: 23), and compound 4 (SEQ ID NO: 25) at concentrations ranging from 2 μM to 50 μM. The antimiRs were added to the medium without any additional components to enhance cellular uptake. Cells were harvested after 72 hours of treatment and total RNA was purified. Real time PCR was performed for 13 direct gene targets of miR-155 (Worm et al. 2009; O'Connell et al. 2010; Zhang et al. 2012; and miRagen unpublished data). The relative fold-change in the expression of the 13 genes in the antimiR-treated cells compared to the untreated cells was calculated. […] Four predicted direct targets that lacked expression in at least one cell line were omitted. The gene expression fold-changes were log 10-transformed, plotted on a grayscale, representing the highest relative increase in gene expression, and conversely, the greatest reduction in gene expression.
Four direct gene targets of miR-155-5p (Bach1, Jarid2, Picalm, and Ship1) were chosen for additional analysis, as these four genes were modulated by antimiR-155 in all three mycosis fungoides cell lines (MJ, HuT102, and My-La). These genes were chosen to represent the gene expression signature for antimiR activity in vitro. Additionally, the four-gene signature was used to compare the activity of the antimiR compounds. These gene changes were reproducible over three independent experiments with cells of varying passage numbers. FIGS. 3, 4, 5, 6, and 7 show the fold-change results of this four-gene signature in the HuT102, MJ, HH, My-La, and Hut78 cell lines, respectively. * p-value<0.0001 vs untreated by nonparametric Mann-Whitney test. The Mann-Whitney test was chosen because the variances are unequal between the treatments compared to untreated cells.
The control oligonucleotide was a 14-nucleotide antimiR targeting a C. elegans miRNA not expressed in mammals (control 1). The second oligo is a scramble of the 14-nucleotide sequence of antimiR-155 compound 4 (control 2). The MJ and HuT102 cell lines were incubated with 10 μM antimiR-155 compounds 3 (SEQ ID NO: 23) or 4 (SEQ ID NO: 25) or the two control oligos for 72 hours.

HuT102 cells [2] = experiment: AntimiR-155 combined with HDAC inhibitor SAHA: caspase 3/7 activity in HuT102 cells; details: 10 μM compound combined with 0.25 or 0.5 μM SAHA
Protocol: Vorinostat (chemical name: SAHA) is a standard-of-care epigenetic therapy for patients with advanced mycosis fungoides. However, the side-effects of pan-HDAC inhibitors are well-described. To determine whether a combination therapy might show enhanced activity compared to treatment with individual compounds, HuT102 cells were treated with a sub-efficacious dose of SAHA combined with antimiR-155.
HuT102 cells were treated with 0.25 μM SAHA and 10 μM compound 3 (SEQ ID NO: 23) or 4 (SEQ ID NO: 25), individually or in combination. Cells were harvested daily to measure ATP levels and caspase 3/7 activity. A similar experiment was performed with 0.50 μM SAHA.
FIGS. 20A and 20B show the effect on caspase 3/7 activity.

miR-155-5p [3] = experiment: Whole genome expression profiling of CTCL cell lines treated with antimiR-155
Protocol: To gain a more complete understanding of the molecular consequences of miR-155 inhibition in mycosis fungoides cell lines, whole genome transcriptome profiling was performed on MJ and HuT102 cell lines treated with antimiR-155 compounds 3 (SEQ ID NO: 23) or 4 (SEQ ID NO: 25) for 4 days (96 hours) or 8 days. The statistically-significant gene expression signature was defined by one-way ANOVA for antimiR-treated cells compared to untreated cells at the same time point. […] The fold-change results are shown in FIGS. 9 and 10 as heat maps, as described for FIG. 2.
The gene expression profile common to both cell lines and both compounds at Day 4 was analyzed for the enrichment of miR-155-5p seed-matched gene targets (8-, 7-, and 6-nucleotide binding sites). The fold-change of these genes is represented in a heat map in FIG. 11. […] The gene signature was also analyzed using the DAVID bioinformatic resource for functional gene annotation enrichment (Huang da et al., 2009). There was no significant enrichment of Gene Ontology database terms as defined by a Benjamini-corrected p-value of <0.01.
The gene expression signature common to both cell lines and both compounds at Day 8 (677 genes in total) was subjected to analysis for enrichment of seed-matched gene targets and for functional gene annotation.
The activity of antimiR-155 compound 4 (SEQ ID NO: 25) was further investigated by treating the third mycosis fungoides cell line, MyLa, with compound 4 (SEQ ID NO: 25) for 4 days and 8 days and profiling the changes in gene expression. To test the specificity of compound 4 (SEQ ID NO: 25), cells of the Sézary syndrome cell line (HuT78) were treated with compound 4 (SEQ ID NO: 25) for 8 days and the changes in gene expression were profiled. Genes that are statistically changed with a false discovery rate (FDR) corrected p-value of <0.05 in response to compound 4 (SEQ ID NO: 25) in three mycosis fungoides cell lines, HuT102, MJ, and My-La, are depicted in the heat map as described above. The total number of genes in the heat map is 324. […]

My-La cells [4] = experiment: Caspase 3/7 activity in My-La cells; details: over time
Protocol: (§1) FIGS. 17A and 17B show proliferation and activation of caspase 3/7 over time with compounds 3 (SEQ ID NO: 23) and 4 (SEQ ID NO: 25).
(§2) In addition to a time course, a dose titration of antimiR-155 compounds in My-La cells was performed with ATP and caspase 3/7 measurements after eight days of treatment (FIGS. 18A and 18B, respectively).

My-La cells [5] = experiment: Proliferation of My-La cells (ATP)
Protocol: as §1, §2

HuT102 cells [6] = experiment: Apoptosis by caspase 3/7 activity in HuT102 cells; details: for apoptosis (caspase 3/7 activity normalized to ATP): over time
Protocol: (§3) Since the level of ATP correlates directly with cell number, ATP was measured to determine the cell number. […] The reduction in cell number was accompanied by an increase in apoptosis as measured by caspase 3/7 activity (FIG. 14B). The caspase 3 and 7 proteins are members of the cysteine aspartic acid-specific protease (caspase) family. The caspase family plays key effector roles in apoptosis in mammalian cells. Caspase activity was normalized to ATP levels, as all cells have a low level of basal caspase activity that can confound the results if not normalized appropriately.
(§4) In addition to a time course, a dose titration of antimiR-155 compounds in HuT102 cells was performed with ATP and caspase 3/7 measurements performed after eight days of treatment (FIGS. 15A and 15B, respectively).

HuT102 cells [7] = experiment: Proliferation of HuT102 cells (cell number by ATP level); details: for proliferation (cell number by ATP): over time
Protocol: as §3, §4

miR-155 = experiment: Dual luciferase reporter assay with miR-155 binding site in HeLa cells; details: 10 nM miR-155 mimic, 2 nM oligonucleotide
Excerpt: To assess the activity of a miR-155 inhibitor, a dual luciferase reporter assay system was used. In brief, the binding site for miR-155 was cloned into the 3′ UTR of the Renilla luciferase gene located within the commercially-available psiCHECK-2 vector system (Promega). In the absence of a miR-155 inhibitor, the expression of Renilla luciferase protein is repressed by a miR-155 mimic. In the presence of a miR-155 inhibitor, the expression of Renilla luciferase protein is de-repressed. […] Expression of either Renilla or firefly luciferase is measured through detection of light emitted by the luciferase protein.
50 ng of the dual luciferase reporter plasmid containing the miR-155 binding site was transfected into HeLa cells without a miR-155 mimic (“Reporter” only), with 10 nM miR-155 mimic (“Reporter+mimic”), with 10 nM miR-155 mimic and 2 nM of the control oligonucleotide, or with 10 nM miR-155 mimic and 2 nM of a test miR-155 oligonucleotide inhibitor of 11-14 nucleotide lengths (Table 4). The miR-155 mimic was purchased from Dharmacon (miRIDIAN microRNA Human hsa-miR-155-5p mimic; Accession number MIMAT0000646; catalog # C-300647-05-0005) and contains the mature miRNA sequence: -[…]- (SEQ ID NO: 121). The control oligonucleotide used in the experiment had the following sequence: 5′-lCs.dTs.dAs.lGs.dAs.lAs.dAs.lGslAs.dGs.lTs.dAs.lGs.lA-3′ (SEQ ID NO: 122).

Substance: 5′-lCs.dAs.lCs.dGs.dAs.lTs.lTs.dAs.lGs.dCs.lAs.lTs.lTs.lA-3′ (CACGATTAGCATTA; sugars from the 5' end ldlddlldldllll, all phosphorothioate, methylation of C not given here) [compound 4]
- target de-repression (miR-155-5p [1]): greater target de-repression than antimiR-155 compound 3 (SEQ ID NO: 23)
- gene expression signature of four direct targets of miR-155-5p vs untreated cells (miR-155-5p [1]): statistically significantly different from that of untreated cells
- antimiR activity by four-gene signature (Bach1, Jarid2, Picalm, Ship1) (miR-155-5p [1]): more active than compounds 1 (SEQ ID NO: 27) and 3 (SEQ ID NO: 23)
- apoptosis (caspase 3/7 activity) (HuT102 cells [2]): increased apoptosis compared to each treatment alone
- number of genes up- or down-regulated in all three mycosis fungoides cell lines (Table 2) (miR-155-5p [3]; HuT102, MJ, MyLa, Day 4 or Day 8): 587
- magnitude of gene regulation (whole genome heat map) (miR-155-5p [3]; MJ and HuT102 cells, 4 days and 8 days): greater magnitude of gene regulation in both cell lines and at both time points
- change in gene expression (miR-155-5p [3]; Sézary syndrome cell line HuT78, 8 days): did not show much change in the gene expression
- activation of caspase 3/7 (My-La cells [4]): greater apoptotic activity; also recorded: greater activity compared to compound 3 (SEQ ID NO: 23)
- proliferation (ATP) (My-La cells [5]; dose titration, eight days of treatment): further confirm the inhibitory potential
- proliferation (ATP) (My-La cells [5]; over time): greater inhibition of proliferation; also recorded: greater activity compared to compound 3 (SEQ ID NO: 23)
- caspase 3/7 activity (HuT102 cells [6]; day 8 of treatment): confirm the inhibitory potential
- apoptosis (caspase 3/7 activity normalized to ATP) (HuT102 cells [6]): greater apoptotic activity
- apoptosis (caspase 3/7 activity normalized to ATP) (HuT102 cells [6]; listed as Compound 4): greater induction of apoptosis than bexarotene
- proliferation (ATP) (HuT102 cells [7]; day 8 of treatment): confirm the inhibitory potential
- proliferation (cell number by ATP) (HuT102 cells [7]): greater inhibition of proliferation; also recorded: comparable to that seen with bexarotene

Substance: 5′-lCs.dTs.dAs.lGs.dAs.lAs.dAs.lGslAs.dGs.lTs.dAs.lGs.lA-3′ (CTAGAAAGAGTAGA; sugars from the 5' end lddldldlldldll, all phosphorothioate, methylation of C not given here) [control oligonucleotide, control oligonucleotide used in the dual luciferase reporter experiment]
- de-repression of Renilla luciferase expression (miR-155): did not de-repress the expression of luciferase

Substance: 5′-lCs.dGs.lAs.lTs.lTs.lAs.lGs.dCs.lAs.lTs.lTs.lA-3′ (CGATTAGCATTA; sugars from the 5' end l1 d1 l5 d1 l4, all phosphorothioate, methylation of C not given here) [compound 2]
- target de-repression (miR-155-5p [1]): greater target de-repression than antimiR-155 compound 3 (SEQ ID NO: 23)
- antimiR activity by four-gene signature (Bach1, Jarid2, Picalm, Ship1) (miR-155-5p [1]): more active than compounds 1 (SEQ ID NO: 27) and 3 (SEQ ID NO: 23)
- activation of caspase 3/7 (My-La cells [4]): greater apoptotic activity
- proliferation (ATP) (My-La cells [5]; over time): greater inhibition of proliferation
- apoptosis (caspase 3/7 activity normalized to ATP) (HuT102 cells [6]): greater apoptotic activity
- proliferation (cell number by ATP) (HuT102 cells [7]): greater inhibition of proliferation

Substance: 5′-lCs.dGs.lAs.lTs.lTs.dAs.lGs.dCs.lAs.lTs.lTs.lA-3′ (CGATTAGCATTA; sugars from the 5' end ldllldldllll, all phosphorothioate, methylation of C not given here) [compound 3]
- gene expression signature of four direct targets of miR-155-5p vs untreated cells (miR-155-5p [1]): statistically significantly different from that of untreated cells
